Laboratory results as given in EP1115421B1, “USE OF GLP-1 OR ANALOGS IN TREATMENT OF STROKE” (ELI LILLY AND COMPANY, priority 1998, dated 2009).
Where no end group is shown, it is not given here.

Assays:
NIDDM patients = experiment: Infusion during meals in NIDDM patients, blood glucose (Example 2); type: in vivo; settings: while infused, three hours during breakfast, lunch and dinner; compared with insulin injection; five NIDDM patients
[1] = tested on: patients having non-insulin dependent diabetes (NIDDM); experiment: Overnight subcutaneous infusion in NIDDM patients, blood glucose (Example 1); type: in vivo

GLP-1(7-36) amide (HAEGTFTSDVSSYLEGQAAKEFIAWLVKGR-NH2; UniProt P01275 98-127, looked up, fragment) [truncated glucagon-like peptide 1, C-terminal amide]
post-prandial glucose excursions (NIDDM patients): eliminated
metabolic control ([1]; compared with continuous insulin infusion, average blood glucose significantly lower at 23:00, 0:00 and 1:00): better than that achieved by insulin
effect on blood glucose ([1]; subcutaneous infusion 1.2 pmol/kg/hr, ten hours during the night, five NIDDM patients): nearly normalized blood glucose
